Structures are written as SMILES.

From ChEMBL document CHEMBL4732166, “Thiosemicarbazide binds with the dicopper center in the competitive inhibition of mushroom tyrosinase enzyme: Synthesis and molecular modeling of theophylline analogues” (Bioorg Med Chem Lett, 2021) come the findings set out here.

The target in one experiment is T1, Mushroom tyrosinase (Agaricus bisporus, UniProt O42713+Q00024+C7FF04+C7FF05). The experiment can be described thus: Inhibition of mushroom tyrosinase using […] as substrate.
Details: not given
`CCn1c(Oc2ccc(/C=N/NC(N)=S)cc2)nc2c1c(=O)n(C)c(=O)n2C`: the Ki (usually the equilibrium dissociation constant of an inhibitor or competing ligand from its target) was determined as 670 nM.

The next experiment addresses T1, Mushroom tyrosinase. In words: Competitive inhibition of mushroom tyrosinase using […] as substrate by Lineweaver-Burk plot analysis.
Details: not given
With `CCn1c(Oc2ccc(/C=N/NC(N)=S)cc2)nc2c1c(=O)n(C)c(=O)n2C`, the Ki is 670 nM.

The target of a further experiment is Mushroom tyrosinase (Agaricus bisporus) (UniProt O42713+Q00024+C7FF04+C7FF05). As to conditions: dose 50.0 µM.
Description: Inhibition of mushroom tyrosinase using PNP-G as substrate at 50 nM relative to control
Consider `CCn1c(Oc2ccc(C3C4=C(CC(C)(C)CC4=O)NC4=C3C(=O)CC(C)(C)C4)cc2)nc2c1c(=O)n(C)c(=O)n2C`, for which the inhibition (in general, the percentage by which the read-out fell short of the control) is greater than 40%. The same measure, in the same setting: under `CCn1c(Oc2ccc(C3C(C#N)=C(N)Oc4[nH]c(=S)[nH]c(=O)c43)cc2)nc2c1c(=O)n(C)c(=O)n2C` (stereo not drawn) stands 32.7%. With `CCn1c(Oc2ccc(C=C3C(=O)NC(=S)NC3=O)cc2)nc2c1c(=O)n(C)c(=O)n2C`, the inhibition came out at 30.2%. For `CCn1c(NN)nc2c1c(=O)n(C)c(=O)n2C`, the inhibition was greater than 40%.

As to `CCn1c(Oc2ccc(-c3nc(-c4ccccc4)c(-c4ccccc4)[nH]3)cc2)nc2c1c(=O)n(C)c(=O)n2C`, the inhibition is greater than 40%. Compound `CCn1c(Oc2ccc(/C=N/N)cc2)nc2c1c(=O)n(C)c(=O)n2C` yielded an inhibition greater than 40%. The same measure, in the same setting: the value for `CCn1c(Oc2ccc(/C=N/Nc3ccccn3)cc2)nc2c1c(=O)n(C)c(=O)n2C` was greater than 40%; that for `CCn1c(Oc2ccc(/C=N/N=C3/NC(=O)CS3)cc2)nc2c1c(=O)n(C)c(=O)n2C` was 29.4%; that for `CCn1c(Oc2ccc(/C=N/NC(N)=S)cc2)nc2c1c(=O)n(C)c(=O)n2C` was greater than 40%.

`CCn1c(Oc2ccc(C=O)cc2)nc2c1c(=O)n(C)c(=O)n2C`: the inhibition stood at 29.5%. Same read-out and setting: the value for `CCn1c(N/N=C/c2nc3ccccc3[nH]2)nc2c1c(=O)n(C)c(=O)n2C` was 27%. For the compound `CCn1c(Oc2ccc(/C=N\NC(=O)c3cccnc3)cc2)nc2c1c(=O)n(C)c(=O)n2C`, the inhibition is 40.3%. In the case of `CCn1c(Oc2ccc(/C=N/N=C3/C(=O)Nc4ccccc43)cc2)nc2c1c(=O)n(C)c(=O)n2C`, the inhibition is greater than 40%. Still for that read-out and setting: under `CCn1c(Oc2ccc(-c3nnc(NC(C)=O)s3)cc2)nc2c1c(=O)n(C)c(=O)n2C` stands 33.6%; under `CCn1c(Oc2ccc(C=C(C#N)C#N)cc2)nc2c1c(=O)n(C)c(=O)n2C`, greater than 40%; under `CCn1c(Oc2ccc(/C=N\Nc3c(F)c(F)c(F)c(F)c3F)cc2)nc2c1c(=O)n(C)c(=O)n2C`, greater than 40%.
